13 compounds from patent US20240199623A1 (ILDONG PHARMACEUTICAL CO., LTD., priority 2020, published 2024) can be followed below.

Bounds are passed on as bounds.

The target of the assay is human wild type-CFTR (Homo sapiens, UniProt P13569). Nature of the assay: Cell-based YFP assay. Also on record: expressed in transfected cells; host or cells: CHO-K1 (Chinese hamster ovary). Conditions: CHO-K1 cells expressing human wild type-CFTR and YFP-H148Q/I152L; forskolin 20 μM = 100% activity; read-out: Cell-based YFP Assay (EC50) Concentration Range. In a few lines:
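CHO-K1 cells co-expressing human wild-type CFTR and YFP-H148Q/I152L halide sensor, grown 48 h at 37 °C, then in PBS. YFP quenching by I⁻ influx read at 37 °C after adding 140 mM I⁻ solution, sampled every 0.4 s for 14 s. Triplicates averaged; EC50 fitted.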

Chain of human wild type-CFTR (P13569 whole entry): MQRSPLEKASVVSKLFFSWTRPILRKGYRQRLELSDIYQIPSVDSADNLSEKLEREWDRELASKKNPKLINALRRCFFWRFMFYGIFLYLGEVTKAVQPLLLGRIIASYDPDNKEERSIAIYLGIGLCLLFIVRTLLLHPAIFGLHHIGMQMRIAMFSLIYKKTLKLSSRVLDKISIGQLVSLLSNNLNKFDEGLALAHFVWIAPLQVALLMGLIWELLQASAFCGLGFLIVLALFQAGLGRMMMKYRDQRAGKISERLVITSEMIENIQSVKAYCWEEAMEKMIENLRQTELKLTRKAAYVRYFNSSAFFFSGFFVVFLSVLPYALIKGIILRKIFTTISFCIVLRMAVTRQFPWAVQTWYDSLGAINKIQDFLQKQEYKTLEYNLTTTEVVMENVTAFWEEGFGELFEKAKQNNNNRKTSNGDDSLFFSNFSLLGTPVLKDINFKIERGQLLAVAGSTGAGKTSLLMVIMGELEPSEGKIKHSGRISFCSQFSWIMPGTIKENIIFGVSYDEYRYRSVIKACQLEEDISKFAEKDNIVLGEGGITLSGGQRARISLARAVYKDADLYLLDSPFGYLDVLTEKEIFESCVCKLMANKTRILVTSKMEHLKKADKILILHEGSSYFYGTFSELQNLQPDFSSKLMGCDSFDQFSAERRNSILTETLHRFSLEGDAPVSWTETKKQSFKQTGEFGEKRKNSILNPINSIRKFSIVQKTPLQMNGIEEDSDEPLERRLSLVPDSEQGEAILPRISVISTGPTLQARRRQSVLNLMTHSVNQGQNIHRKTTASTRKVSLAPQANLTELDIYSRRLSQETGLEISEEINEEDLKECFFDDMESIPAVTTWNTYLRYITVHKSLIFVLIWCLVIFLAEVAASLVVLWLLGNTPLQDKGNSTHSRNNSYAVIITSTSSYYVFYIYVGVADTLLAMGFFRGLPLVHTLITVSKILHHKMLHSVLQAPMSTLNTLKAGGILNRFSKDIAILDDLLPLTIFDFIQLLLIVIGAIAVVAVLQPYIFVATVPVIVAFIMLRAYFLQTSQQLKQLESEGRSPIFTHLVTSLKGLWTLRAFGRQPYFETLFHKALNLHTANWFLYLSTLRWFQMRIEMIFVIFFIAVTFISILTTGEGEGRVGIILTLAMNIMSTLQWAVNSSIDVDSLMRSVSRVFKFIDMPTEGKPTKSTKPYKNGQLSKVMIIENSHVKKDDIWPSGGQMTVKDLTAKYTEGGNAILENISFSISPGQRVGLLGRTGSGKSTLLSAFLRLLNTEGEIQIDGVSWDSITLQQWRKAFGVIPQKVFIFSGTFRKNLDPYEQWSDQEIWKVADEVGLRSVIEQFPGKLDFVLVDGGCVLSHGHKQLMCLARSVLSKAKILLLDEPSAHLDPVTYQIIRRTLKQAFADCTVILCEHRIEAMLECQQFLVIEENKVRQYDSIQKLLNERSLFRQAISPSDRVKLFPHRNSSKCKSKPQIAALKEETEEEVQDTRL

`CCOC(=O)c1ccc(NC(=O)c2cc3nccc(-c4ccc(OC)c(OC)c4)n3n2)cc1` [Compound 334, ethyl 4-(7-(3,4-dimethoxyphenyl)pyrazolo[1,5-a]pyrimidine-2-carboxamido)benzoate]: the EC50 is less than 0.2 µM.
In the case of `CCCOC(=O)c1ccc(NC(=O)c2cc3nccc(-c4ccc(OC)c(OC)c4)n3n2)cc1` [Compound 335, propyl 4-(7-(3,4-dimethoxyphenyl)pyrazolo [1,5-a]pyrimidine-2-carboxamido)benzoate] it was less than 0.2 µM; in that of `CCCCOC(=O)c1ccc(NC(=O)c2cc3nccc(-c4ccc(OC)c(OC)c4)n3n2)cc1` [Compound 336, butyl 4-(7-(3,4-dimethoxyphenyl)pyrazolo[1,5-a]pyrimidine-2-carboxamido) benzoate], 0.2 to 2 µM; in that of `CCCCCCCCCCOC(=O)c1ccc(NC(=O)c2cc3nccc(-c4ccc(OC)c(OC)c4)n3n2)cc1` [Compound 337, decyl 4-(7-(3,4-dimethoxy-phenyl)pyrazolo[1,5-a]pyrimidine-2-carboxamido)benzoate], no less than 2 µM.
For the compound `COc1ccc(-c2ccnc3cc(C(=O)Nc4ccc(C(=O)N5CCN(c6ccccn6)CC5)cc4)nn23)cc1OC` [Compound 338, 7-(3,4-dimethoxyphenyl)-N-(4-(4-(pyridin-2-yl)piperazine-1-carbonyl)phenyl)pyrazolo[1,5-a]pyrimidine-2-carboxamide], the EC50 was less than 0.2 µM.
Consider `CCOc1ccc(NC(=O)c2cc3nccc(-c4cc(OC)c(OC)cc4C)n3n2)cc1` [Compound 339, 7-(4,5-dimethoxy-2-methylphenyl)-N-(4-ethoxyphenyl)pyrazolo [1,5-a]pyrimidine-2-carboxamide], for which the EC50 is no less than 2 µM.
In the case of `COc1ccc(-c2ccnc3cc(C(=O)N[C@H]4CC[C@H](C(=O)NC5CCN(C6CCOCC6)CC5)CC4)nn23)cc1OC` [Compound 340, 7-(3,4-dimethoxyphenyl)-N-((1R,4R)-4-((1-(tetrahydro-2H-pyran-4-yl)piperidin-4-yl)carbamoyl)cyclohexyl) pyrazolo[1,5-a] pyrimidine-2-carboxamide] it was no less than 2 µM.
In the case of `COc1ccc(-c2ccnc3cc(C(=O)N[C@H]4CC[C@H](C(=O)N5CCC(N6CCOCC6)CC5)CC4)nn23)cc1OC` [Compound 341, 7-(3,4-dimethoxyphenyl)-N-((1R,4R)-4-(4-morpholinopiperidine-1-carbonyl)cyclohexyl) pyrazolo[1,5-a] pyrimidine-2-carboxamide] it was no less than 2 µM; in that of `COc1ccc(-c2ccnc3cc(C(=O)N[C@H]4CC[C@H](C(=O)N5CCN(c6ccccn6)CC5)CC4)nn23)cc1OC` [Compound 342, 7-(3,4-dimethoxphenyl)-N-((1R,4R)-4-(4-(pyridin-2-yl)piperazine-1-carbonyl)cyclohexyl) pyrazolo[1,5-a] pyrimidine-2-carboxamide], 0.2 to 2 µM; in that of `COc1ccc(-c2ccnc3cc(C(=O)N[C@H]4CC[C@H](C(=O)N5CCC(N6CCCCC6)CC5)CC4)nn23)cc1OC` [Compound 343, N-((1R,4R)-4-([1,4′-bipiperidine]-1′-carbonyl)cyclohexyl)-7-(3,4-dimethoxyphenyl)pyrazolo [1,5-a]pyrimidine-2-carboxamide], no less than 2 µM.
For the compound `COc1ccc(-c2ccnc3cc(C(=O)N[C@H]4CC[C@H](N5CCOCC5)CC4)nn23)cc1OC` [Compound 345, 7-(3,4-dimethoxyphenyl)-N-((1R,4R)-4-morpholinocyclohexyl) pyrazolo[1,5-a]pyrimidine-2-carboxamide], the EC50 is no less than 2 µM.
In the case of `COCCOCOc1ccc(NC(=O)c2cc3nccc(-c4ccc(OC)c(OC)c4)n3n2)cc1` [Compound 346, 7-(3,4-dimethoxyphenyl)-N-(4-((2-methoxyethoxy)methoxy)phenyl)pyrazolo[1,5-a]pyrimidine-2-carboxamide] it was less than 0.2 µM.
In the case of `COc1ccc(-c2ccnc3cc(C(=O)N4CC(C)NC(C)C4)nn23)cc1OC` (stereo not shown) [Compound 347, (7-(3,4-dimethoxyphenyl)pyrazolo[1,5-a]pyrimidin-2-yl)(3,5-dimethylpiperazin-1-yl)methanone] it was no less than 2 µM.
